Test results as given in paper PMC9374667 (Communications Biology, 2022).
≈ marks a conversion by molar mass, not a printed value. Where “and” joins values, the source holds several entries; their conditions need not be identical. Equal entries are not always repeated.

Key:
db/db mice [1] = assay: HE staining of epididymal adipose tissue, adipocyte size; assay type: in vivo; settings: BJ 75 and 150 mg/kg, BBR 150 mg/kg, Ibu 150 mg/kg
Procedure: The adipose tissue was fixed overnight in 4% paraformaldehyde, then embedded in paraffin and cut into 5 µm thick slices. Tissue sections were stained with hematoxylin and eosin (H&E). For immunohistochemistry, sections were incubated with primary antibodies against F4/80 (1:100 dilution) diluted in the blocking solution at 4 °C overnight. The tissue sections were then incubated with the horseradish peroxidase (HRP)-conjugated secondary antibody at room temperature for 2 h. Finally, the sections were developed with diaminobenzidine (DAB) and counterstained with hematoxylin. Images were obtained under a microscope. To quantify the F4/80-positive macrophages, two random fields per sample were analyzed by Image J software. The IHC profiler plugin of ImageJ was used to calculate the F4/80 positive area.

db/db mice [2] = assay: Insulin tolerance test (ITT), AUC and initial slope; assay type: in vivo; settings: db/db mice, IBU 150mg/kg
Procedure: (§1) Mice were fasted for 4 h for insulin resistance test and intraperitoneally injected with 1 unit/kg of insulin. Blood glucose levels were measured from the tail vein blood at 0, 15, 30, 45, 60, 90, and 120 min after injection. Plasma insulin levels were measured using an ultrasensitive mouse insulin ELISA kit (Nanjing Jiancheng Bioengineering Institute, Nanjing, China).

[3] = In vitro dissolution studies: dynamic solubility in buffers and simulated biological fluids; assay type: physicochemical; parameters: BBR dissolved in CMC-Na (Figure S7a) / Ibu dissolved in CMC-Na (Figure S7b): unit not given here; settings: mean; for solubility at 0.5 h / solubility at 1 h / solubility at 2 h / solubility at 24 h: 37 °C
Procedure: (§2) Solubilities were determined by adding excess sample to 30 mL different mediums, such as HCl solution, acetate buffer, phosphate buffer, SGF, FaSSIF and FeSSIF. The configuration of various buffer solutions is shown in Supplementary Table 2. After being shaken at 400 rpm at 37 °C for 0.5, 1, 2, and 24 h, 0.3 mL of suspension was sampled and centrifuged at 14,000 rpm for 8 min to isolate mother liquor, and then analyzed by HPLC after dilution. All samples were analyzed in triplicate.

db/db mice [4] = assay: Glucose tolerance test (GTT); assay type: in vivo; settings: 150mg/kg
db/db mice [5] = assay: Fasting serum insulin levels (ELISA); assay type: in vivo; settings: 150mg/kg, individual animals
Procedure: as §1

[6] = pH of the solution after 24 hours of the dissolution test; assay type: physicochemical
Procedure: as §2, with “triplicate. […]” for “triplicate.”
into a 1000 mL flask followed by addition of about 800 mL of deionized water. The mixture is stirred until all solids are dissolved.
Add about 100 mL of 0.1 N HCl, check pH value with a pH meter and adjust the pH to 2.0 with HCl (1 N) or NaOH (1 N). Then dilute to the volume with deionized water.
* 1N sodium hydroxide: Weigh 8 g NaOH in a 200 mL plastic volumetric flask, add deionized water to volume and mix well. […]
phosphate and 3.093 g sodium chloride in a 500 mL volumetric flask, add about 0.450 L deionized water, and adjust the pH to 6.5 with 1N sodium hydroxide or 1 N hydrochloric acid. Make up to volume (0.5 […]
Step 2: Place and dissolve 1.120 g FaSSIF/FeSSIF/FaSSGF instant powder with 0.250 L of buffer (from step 1) in a 500 mL volumetric flask, then add buffer (from step 1) to volume, and mix well. […]
g sodium chloride in a 500 mL volumetric flask, add about 0.450 L deionized water, and adjust the pH to 5.0 with 1 N sodium hydroxide or 1 N hydrochloric acid. Make up to volume (500 mL) with
Step 2: Place and dissolve 5.600 g FaSSIF/FeSSIF/FaSSGF instant […]
0.750 L deionized water. Make up to volume (1000 mL) with deionized water and placed overnight.
(1 picture or pasted object on this page, not shown here)

[7] = aqueous buffer, thermodynamic from solid, Acetate buffer (pH 4.5)
[8] = fasted state simulated intestinal fluid (FaSSIF-V1), FaSSIF-V1 (pH 6.5)
[9] = fed state simulated intestinal fluid (FeSSIF-V1), thermodynamic from solid, FeSSIF-V1 (pH 5.0)
[10] = simulated gastric fluid (SGF), SGF (pH 2.0)

CC(C)Cc1ccc(C(C)C(=O)O)cc1 (stereo not drawn) [Ibu, Ibuprofen, reference compound]
Size of adipocytes in eWAT compared with vehicle (db/db mice [1]): not significantly different
Blood Glucose (db/db mice [2]; times 0, individual animals (Figure S9p/S9r)): 22.4 mmol/L and 22.3 mmol/L and 22.8 mmol/L
Blood Glucose (db/db mice [2]; times 15, individual animals (Figure S9p/S9r)): 24.0 mmol/L
Blood Glucose (db/db mice [2]; times 30, individual animals (Figure S9p/S9r)): 19.6 mmol/L and 21.3 mmol/L and 20.3 mmol/L and 18.8 mmol/L
Blood Glucose (db/db mice [2]; times 45, individual animals (Figure S9p/S9r)): 13.8 mmol/L and 18.5 mmol/L and 19.5 mmol/L and 17.5 mmol/L and 15.3 mmol/L and 15.6 mmol/L
Blood Glucose (db/db mice [2]; times 60, individual animals (Figure S9p/S9r)): 15.0 mmol/L and 13.2 mmol/L and 20.4 mmol/L and 15.7 mmol/L
Blood Glucose (db/db mice [2]; times 90, individual animals (Figure S9p/S9r)): 15.6 mmol/L and 21.3 mmol/L and 21.6 mmol/L and 14.9 mmol/L and 15.0 mmol/L
Blood Glucose (db/db mice [2]; times 120, individual animals (Figure S9p/S9r)): 18.2 mmol/L and 22.9 mmol/L and 18.8 mmol/L and 16.9 mmol/L and 15.3 mmol/L
solubility at 0.5 h ([3]; Acetate buffer (pH 4.5)): 89.5 µg/mL (≈ 0.434 mM)
solubility at 1 h ([3]; Acetate buffer (pH 4.5)): 103 µg/mL (≈ 0.497 mM)
Ibu dissolved in CMC-Na (Figure S7b) ([3]; time 0.5): 0.09941
Ibu dissolved in CMC-Na (Figure S7b) ([3]; time 1): 0.1517
Ibu dissolved in CMC-Na (Figure S7b) ([3]; time 24): 0.385
solubility at 0.5 h ([3]; Phosphate buffer (pH 6.8)): 2650 µg/mL (≈ 12.9 mM)
solubility at 1 h ([3]; Phosphate buffer (pH 6.8)): 2680 µg/mL (≈ 13 mM)
solubility at 2 h [3, 7]: 124 µg/mL (≈ 0.603 mM)
solubility at 24 h [3, 7]: 125 µg/mL (≈ 0.605 mM)
solubility at 2 h ([3]; aqueous buffer, thermodynamic from solid, Phosphate buffer (pH 6.8)): 2900 µg/mL (≈ 14.1 mM)
solubility at 24 h ([3]; fasted state simulated intestinal fluid (FaSSIF-V1), thermodynamic from solid, FaSSIF-V1 (pH 6.5)): 1480 µg/mL (≈ 7.16 mM)
solubility at 0.5 h [3, 8]: 1660 µg/mL (≈ 8.07 mM)
solubility at 1 h [3, 8]: 1610 µg/mL (≈ 7.8 mM)
solubility at 2 h [3, 8]: 1610 µg/mL (≈ 7.81 mM)
solubility at 0.5 h [3, 9]: 798 µg/mL (≈ 3.87 mM)
solubility at 1 h [3, 9]: 780 µg/mL (≈ 3.78 mM)
solubility at 2 h [3, 9]: 890 µg/mL (≈ 4.31 mM)
solubility at 24 h [3, 9]: 705 µg/mL (≈ 3.42 mM)
solubility at 0.5 h [3, 10]: 51.9 µg/mL (≈ 0.252 mM)
solubility at 1 h [3, 10]: 70.4 µg/mL (≈ 0.341 mM)
solubility at 2 h [3, 10]: 77.3 µg/mL (≈ 0.375 mM)
solubility at 24 h [3, 10]: 59.9 µg/mL (≈ 0.29 mM)
Blood Glucose (Figure S9p) (db/db mice [4]; time 0, individual animals): 23.3 mmol/L and 18.9 mmol/L and 18.7 mmol/L and 22.0 mmol/L
Blood Glucose (Figure S9p) (db/db mice [4]; time 15, individual animals): 33.3 mmol/L
Blood Glucose (Figure S9p) (db/db mice [4]; time 30, individual animals): 33.3 mmol/L
Blood Glucose (Figure S9p) (db/db mice [4]; time 45, individual animals): 33.3 mmol/L
Blood Glucose (Figure S9p) (db/db mice [4]; time 60, individual animals): 33.3 mmol/L and 31.7 mmol/L and 32.4 mmol/L
Blood Glucose (Figure S9p) (db/db mice [4]; time 90, individual animals): 33.3 mmol/L and 29.2 mmol/L and 22.9 mmol/L
Blood Glucose (Figure S9p) (db/db mice [4]; time 120, individual animals): 30.3 mmol/L and 22.8 mmol/L and 23.9 mmol/L
Insulin (db/db mice [5]): 16.07 mIU/L and 14.41 mIU/L and 14.02 mIU/L and 15.71 mIU/L and 12.42 mIU/L and 14.35 mIU/L
pH of the solution after 24 hours ([6]; Acetate buffer, blank vehicle 4.54): 4.56
pH of the solution after 24 hours ([6]; CMC-Na, blank vehicle 6.51): 5.57
pH of the solution after 24 hours ([6]; FaSSIF-v1, blank vehicle 6.51): 6.04
pH of the solution after 24 hours ([6]; FeSSIF-v1, blank vehicle 5.04): 5.05
pH of the solution after 24 hours ([6]; HCl solution, blank vehicle 1.08): 1.07
pH of the solution after 24 hours ([6]; Phosphate buffer, blank vehicle 6.84): 6.60
pH of the solution after 24 hours ([6]; SGF, blank vehicle 2.03): 2.00
